Tests used:
tissue PDH activity = test: Ex vivo PDH activation assay (liver and epididymal adipose tissue after oral administration); assay type: in vivo, Sprague-Dawley rats; conditions: 3 mg/kg, rat, mean ± standard deviation
Method: The action of test compound on tissue PDH activity was evaluated. NADH production was detected via p-iodonitrotetrazolium violet (INT)-coupled system to measure PDH activity.
Normal male Sprague-Dawley rats were randomly allocated to the vehicle group and the test compound groups. The vehicle (0.5% aqueous methylcellulose solution, 5 mL/kg) or the test compound was orally administered to the rats. At 5 or 20 hr after administration, the rats were anesthetized with an intraperitoneal injection of sodium pentobarbital (60 mg/kg), and liver slices and epididymal adipose tissues were collected.
To the liver slices were rapidly added 9 volumes of ice-cold homogenization buffer (0.25 mol/L sucrose, 5 mmol/L tris(hydroxymethyl)aminomethane hydrochloride (pH 7.5), 2 mmol/L EDTA), and the mixtures were homogenized using a Polytron homogenizer. The homogenates were centrifuged at 600×g, 4° C. for 10 min to obtain the supernatant. The supernatants (1 mL) were centrifuged at 16,000×g, 4° C. for 10 min to collect the precipitates. The precipitates were washed by resuspension in the homogenization buffer (1 mL) and centrifuged in the same manner. The precipitates were frozen with liquid nitrogen and stored at −80° C. as the liver mitochondrial fraction.
To the adipose tissues were rapidly added 3 volumes of an ice-cold homogenization buffer, and the mixtures were homogenized using a Polytron homogenizer. The homogenates were centrifuged at 600×g, 4° C. for 10 min to obtain the supernatant. The supernatants were centrifuged at 16,000×g, 4° C. for 10 min to collect the precipitates. The precipitates were washed by resuspension in the homogenization buffer (1 mL) and centrifuged in the same manner. The precipitates were frozen with liquid nitrogen and stored at −80° C. as the adipose tissue mitochondrial fraction.
The mitochondrial fractions were thawed and suspended with the sample buffer (0.25 mol/L sucrose, 20 mmol/L tris(hydroxymethyl)aminomethane hydrochloride (pH 7.5), 50 mmol/L potassium chloride, and 1 mL/L 4-(1,1,3,3-tetramethylbutyl)phenyl-polyethylene glycol (Triton X-100)). Active PDH activity (PDHa activity) and total PDH activity (PDHt activity) were measured to evaluate the PDH activity. For the measurement of the PDHt activity, equal amounts of the mitochondrial suspension and the activation buffer (0.25 mol/L sucrose, 20 mmol/L tris(hydroxymethyl)aminomethane hydrochloride (pH 7.5), 50 mmol/L potassium chloride, 1 mL/L Triton X-100, 4 mmol/L calcium chloride, 40 mmol/L magnesium chloride, 10 mmol/L sodium dichloroacetate) were mixed, and the mixtures were incubated at 37° C. for 10 min. Forty microliters of the mitochondrial suspensions diluted with a sample buffer were added to a 96-well microplate for activity measurement and blank measurement. Then 180 μL of the reaction mixture (0.056 mmol/L potassium phosphate buffer (pH 7.5), 5.6 mmol/L DL-carnitine, 2.8 mmol/L NAD, 0.22 mmol/L thiamin pyrophosphate, 0.11 mmol/L Coenzyme A, 1.1 mL/L Triton X-100, 1.1 mmol/L magnesium chloride, 1.1 g/L bovine serum albumin, 0.67 mmol/L INT, 7.2 μmol/L phenazine methosulfate, 28 mmol/L sodium oxamate) was added to each well, and then 20 μL of 50 mmol/L sodium pyruvate for activity measurement or water for blank measurement were added. The mixtures were incubated at room temperature under shading. The absorbances at 500-750 nm, which were attributable to reduction of INT, the final electron acceptor, were measured using a microplate reader over time and the changes in the absorbance were calculated. The PDH activity was calculated by subtraction of the change in absorbance of the blank well from that of the activity measurement well. The percentage of the PDHa activity to the PDHt activity was calculated and taken as an index of the PDH activation.

[1] = Metabolic stability test in liver microsome (human); assay type: in vitro ADME; conditions: 5 μM test compound
Method: Human liver microsome (manufactured by Xenotech, H0620, final concentration (after dilution), 0.2 mg protein/mL) was suspended in 100 mM potassium phosphate buffer (pH 7.4, containing β-nicotinamide adenine dinucleotide phosphate: 1.3 mM, D-glucose-6-phosphate: 3.3 mM, magnesium chloride: 3.3 mM, glucose-6-phosphate dehydrogenase: 0.45 U/mL), and further mixed with a test compound dissolved in MeCN/DMSO (95/5) (final concentration 5 μM). The mixture was incubated at 37° C. for 10 min and 60 min, acetonitrile containing formic acid (final concentration 0.1%) was added, and the mixture was centrifuged. The test compound (unmodified) in the supernatant was measured by high performance liquid chromatography/mass spectrometry (LC/MS) (manufactured by Waters, LC: Acquity UPLC, MS:SQ Detector or TQ Detector). The residual ratio (%) was calculated from the obtained measurement value.

[2] = adipose tissue, 5 hr after oral administration
[3] = adipose tissue, 20 hr after oral administration
[4] = liver, 5 hr after oral administration
[5] = liver, 20 hr after oral administration

Structure (SMILES): Cn1cc(-c2cc(OCC(C)(C)O)cc3c2-c2ccccc2[C@]3(O)C(F)(F)F)cn1 [compound (B), (9R)-2-(2-Hydroxy-2-methylpropoxy)-4-(1-methyl-1H-pyrazol-4-yl)-9-(trifluoromethyl)-9H-fluoren-9-ol, reference compound]
- PDHa activity (% PDHt activity) (tissue PDH activity; [2]): 59 ± 5 % PDHt activity
- PDHa activity (% PDHt activity) (tissue PDH activity; [3]): 30 ± 4 % PDHt activity
- PDHa activity (% PDHt activity) (tissue PDH activity; [4]): 43 ± 7 % PDHt activity
- PDHa activity (% PDHt activity) (tissue PDH activity; [5]): 10 ± 3 % PDHt activity
- stability in liver microsome (residual ratio %) ([1]; 10 min): 98.0%
- stability in liver microsome (residual ratio %) ([1]; 60 min): 88.2%

Structure (SMILES): CC(C)(O)CCCOc1cc(-c2cnn(CC(C)(C)O)c2)c2c(c1)[C@@](O)(C(F)(F)F)c1ccccc1-2 [compound (4), (9R)-2-(4-hydroxy-4-methylpentyloxy)-4-[1-(2-hydroxy-2-methylpropyl)-1H-pyrazol-4-yl]-9-(trifluoromethyl)-9H-fluoren-9-ol]
- PDHa activity (% PDHt activity) (tissue PDH activity; [2]): 62 ± 13 % PDHt activity
- PDHa activity (% PDHt activity) (tissue PDH activity; [4]): 68 ± 11 % PDHt activity
- stability in liver microsome (residual ratio %) ([1]; 10 min): 98.8%
- stability in liver microsome (residual ratio %) ([1]; 60 min): 78.9%

Structure (SMILES): NC(=O)Cn1cc(-c2cc(OCCC34CC5CC(CC(O)(C5)C3)C4)cc3c2-c2ccccc2[C@]3(O)C(F)(F)F)cn1 [compound (A), 2-(4-{(9R)-9-Hydroxy-2-[2-(3-hydroxyadamantan-1-yl)ethoxy]-9-(trifluoromethyl)-9H-fluoren-4-yl}-1H-pyrazol-1-yl)acetamide, reference compound]
- PDHa activity (% PDHt activity) (tissue PDH activity; [2]): 32 ± 14 % PDHt activity
- PDHa activity (% PDHt activity) (tissue PDH activity; [3]): 24 ± 7 % PDHt activity
- PDHa activity (% PDHt activity) (tissue PDH activity; [4]): 35 ± 6 % PDHt activity
- PDHa activity (% PDHt activity) (tissue PDH activity; [5]): 16 ± 10 % PDHt activity
- stability in liver microsome (residual ratio %) ([1]; 10 min): 34.8%
- stability in liver microsome (residual ratio %) ([1]; 60 min): 0.0%

Structure (SMILES): C[C@H](O)COc1cc(-c2cnn(CC(C)(C)O)c2)c2c(c1)[C@@](O)(C(F)(F)F)c1ccccc1-2 [compound (1), (9R)-4-[1-(2-hydroxy-2-methylpropyl)-1H-pyrazol-4-yl]-2-((2S)-2-hydroxypropoxy)-9-(trifluoromethyl)-9H-fluoren-9-ol]
- PDHa activity (% PDHt activity) (tissue PDH activity; [2]): 64 ± 5 % PDHt activity
- PDHa activity (% PDHt activity) (tissue PDH activity; [3]): 56 ± 6 % PDHt activity
- PDHa activity (% PDHt activity) (tissue PDH activity; [4]): 60 ± 8 % PDHt activity
- PDHa activity (% PDHt activity) (tissue PDH activity; [5]): 13 ± 2 % PDHt activity
- stability in liver microsome (residual ratio %) ([1]; 10 min): 102.1%
- stability in liver microsome (residual ratio %) ([1]; 60 min): 87.8%

Structure (SMILES): CC(C)(O)COc1cc(-c2cnn(CC(C)(C)O)c2)c2c(c1)[C@@](O)(C(F)(F)F)c1ccccc1-2 [compound (2), (9R)-2-(2-hydroxy-2-methylpropoxy)-4-[1-(2-hydroxy-2-methylpropyl)-1H-pyrazol-4-yl]-9-(trifluoromethyl)-9H-fluoren-9-ol]
- PDHa activity (% PDHt activity) (tissue PDH activity; [2]): 58 ± 10 % PDHt activity
- PDHa activity (% PDHt activity) (tissue PDH activity; [3]): 36 ± 7 % PDHt activity
- PDHa activity (% PDHt activity) (tissue PDH activity; [4]): 67 ± 9 % PDHt activity
- PDHa activity (% PDHt activity) (tissue PDH activity; [5]): 16 ± 9 % PDHt activity
- stability in liver microsome (residual ratio %) ([1]; 10 min): 94.9%
- stability in liver microsome (residual ratio %) ([1]; 60 min): 87.9%

Source: patent US20150025120A1, “PYRAZOLE-ALCOHOL COMPOUNDS AND PHARMACEUTICAL USE THEREOF” (JAPAN TOBACCO INC., priority 2013, published 2015)
